# Experimental data taken from US20180044304A1, “1,3,4-OXADIAZOLE AND THIADIAZOLE COMPOUNDS AS IMMUNOMODULATORS” (AURIGENE DISCOVERY TECHNOLOGIES LIMITED, priority 2015, published 2018).
# Molecular target: T1, Recombinant mouse PD-L1 (Mus musculus, UniProt Q9EP73)
# T1 construct: Fc (Fc chimera); purchased R&D Systems 1019-B7-100
# Assay: Rescue of mouse splenocyte proliferation in the presence of recombinant PD-L1 (CFSE proliferation assay)
# Type: cell-based
# Conditions: 100 nM compound; anti-CD3/CD28 stimulated C57 BL6 mouse splenocytes with PD-L1; 72 h; stimulated splenocyte proliferation = 100%; read-out: Percent rescue of splenocyte proliferation (@100 nM compound concentration)
# Description: Rescue of Mouse Splenocyte Proliferation in the Presence of Recombinant PD-L1
# Recombinant mouse PD-L1 (rm-PDL-1, cat no: 1019-B7-100; R&D Systems) were used as the source of PD-L1.
# Mouse splenocytes harvested from 6-8 weeks old C57 BL6 mice; RPMI 1640 (GIBCO, Cat #11875); DMEM with high glucose (GIBCO, Cat #D6429); Fetal Bovine Serum [Hyclone, Cat #SH30071.03]; Penicillin (10000 unit/mL)-Streptomycin(10,000 μg/mL) Liquid (GIBCO, Cat #15140-122); MEM Sodium Pyruvate solution 100 mM (100×), Liquid (GIBCO, Cat #11360); Nonessential amino acid (GIBCO, Cat #11140); L-Glutamine (GIBCO, Cat #25030); Anti-CD3 antibody (eBiosciences—16-0032); Anti-CD28 antibody (eBiosciences—16-0281); ACK lysis buffer (1 mL) (GIBCO, Cat #-A10492); Histopaque (density-1.083 gm/mL) (SIGMA 10831); Trypan blue solution (SIGMA-T8154); 2 mL Norm Ject Luer Lock syringe-(Sigma 2014-12); 40 μm nylon cell strainer (BD FALCON 35230); Hemacytometer (Bright line-SIGMA Z359629); FACS Buffer (PBS/0.1% BSA): Phosphate Buffered Saline (PBS) pH 7.2 (HiMedia TS1006) with 0.1% Bovine Serum Albumin (BSA) (SIGMA A7050) and sodium azide (SIGMA 08591); 5 mM stock solution of CFSE: CFSE stock solution was prepared by diluting lyophilized CFSE with 180 μl of Dimethyl sulfoxide (DMSO C2H6SO, SIGMA-D-5879) and aliquoted in to tubes for further use. Working concentrations were titrated from 10 μM to 1 μM. (eBioscience-650850-85); 0.05% Trypsin and 0.02% EDTA (SIGMA 59417C); 96-well format ELISA plates (Corning CLS3390); BD FACS caliber (E6016); Recombinant mouse B7-H1/PDL1 Fc Chimera, (rm-PD-L1 cat no: 1019-B7-100).
# Splenocytes harvested in a 50 mL falcon tube by mashing mouse spleen in a 40 μm cell strainer were further treated with 1 mL ACK lysis buffer for 5 min at room temperature. After washing with 9 mL of RPMI complete media, cells were re-suspended in 3 mL of 1× PBS in a 15 mL tube. 3 mL of Histopaque was added carefully to the bottom of the tube without disturbing overlaying splenocyte suspension. After centrifuging at 800×g for 20 min at room temperature, the opaque layer of splenocytes was collected carefully without disturbing/mixing the layers. Splenocytes were washed twice with cold 1× PBS followed by total cell counting using Trypan Blue exclusion method and used further for cell based assays.
# Splenocytes were cultured in RPMI complete media (RPMI+10% fetal bovine serum+1 mM sodium pyruvate+10,000 units/mL penicillin and 10,000 μg/mL streptomycin) and maintained in a CO2 incubator with 5% CO2 at 37° C.
# CFSE is a dye that passively diffuses into cells and binds to intracellular proteins. 1×10^6 cells/mL of harvested splenocytes were treated with 5 μM of CFSE in pre-warmed 1× PBS/0.1% BSA solution for 10 min at 37° C. Excess CFSE was quenched using 5 volumes of ice-cold culture media to the cells and incubated on ice for 5 min. CFSE labelled splenocytes were further given three washes with ice cold complete RPMI media. CFSE labelled 1×10^5 splenocytes added to wells containing either MDA-MB231 cells (1×10^5 cells cultured in high glucose DMEM medium) or recombinant human PDL-1 (100 ng/mL) and test compounds. Splenocytes were stimulated with anti-mouse CD3 and anti-mouse CD28 antibody (1 μg/mL each) and the culture was further incubated for 72 h at 37° C. with 5% CO2. Cells were harvested and washed thrice with ice cold FACS buffer and % proliferation was analysed by flow cytometry with 488 nm excitation and 521 nm emission filters.
# Percent splenocyte proliferation was analysed using cell quest FACS program and percent rescue of splenocyte proliferation by compound was estimated after deduction of % background proliferation value and normalising to % stimulated splenocyte proliferation (positive control) as 100%. • Stimulated splenocytes: Splenocytes+anti-CD3/CD28 stimulation • Background proliferation: Splenocytes+anti-CD3/CD28+PD-L1 • Compound proliferation: Splenocytes+anti-CD3/CD28+PD-L1+Compound […]
# T1 sequence (Q9EP73 with tags, fused parts or gaps limits assumed): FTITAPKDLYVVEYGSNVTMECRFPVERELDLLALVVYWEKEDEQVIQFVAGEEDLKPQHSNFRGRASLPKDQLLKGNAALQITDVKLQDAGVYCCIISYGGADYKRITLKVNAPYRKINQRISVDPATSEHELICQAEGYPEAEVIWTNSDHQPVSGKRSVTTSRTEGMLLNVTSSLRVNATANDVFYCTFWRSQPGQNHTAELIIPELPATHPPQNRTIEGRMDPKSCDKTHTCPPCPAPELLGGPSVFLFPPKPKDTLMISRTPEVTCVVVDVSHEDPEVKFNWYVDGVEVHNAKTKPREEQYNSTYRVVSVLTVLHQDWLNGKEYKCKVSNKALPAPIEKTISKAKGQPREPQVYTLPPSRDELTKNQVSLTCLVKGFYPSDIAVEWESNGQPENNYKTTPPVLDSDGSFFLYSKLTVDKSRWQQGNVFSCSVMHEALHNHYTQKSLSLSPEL
row,SMILES,activation at 0.1 µM
1,NCCCC[C@H](N)c1nnc([C@H](CC(N)=O)NC(=O)N[C@@H](CCC(=O)O)C(=O)O)o1 [Compound 1],79%
2,CCC(C)[C@H](NC(=O)N[C@@H](CCC(=O)O)C(=O)O)c1nnc([C@@H](N)CCC(=O)O)o1 (stereo partly drawn) [Compound 2],49%
3,CC(O)[C@H](NC(=O)N[C@@H](CC(N)=O)c1nnc([C@@H](N)CCCCN)o1)C(=O)O (stereo partly drawn) [Compound 4],70%
4,CCC(C)[C@H](NC(=O)N[C@H](C(=O)O)C(C)O)c1nnc([C@@H](N)CO)o1 (stereo partly drawn) [Compound 5],16%
5,CC(O)[C@H](NC(=O)N[C@@H](CCCCN)c1nnc([C@@H](N)CO)o1)C(=O)O (stereo partly drawn) [Compound 6],30%
6,CC(O)[C@H](NC(=O)N[C@@H](Cc1ccccc1)c1nnc([C@@H](N)CO)o1)C(=O)O (stereo partly drawn) [Compound 7],29%
7,N[C@@H](Cc1ccc(O)cc1)c1nnc([C@@H]2CCCN2C(=O)N[C@@H](Cc2ccc(O)cc2)C(=O)O)o1 [Compound 8],60%
8,CC(O)[C@H](NC(=O)N[C@H](c1nnc([C@@H](N)C(C)O)o1)C(C)O)C(=O)O (stereo partly drawn) [Compound 9],29%

# Second part, the molecule after the results:
row,activation at 0.1 µM,SMILES
1,34%,NC(=O)C[C@H](NC(=O)N[C@@H](CC(=O)O)C(=O)O)c1nnc([C@@H](N)CO)o1 [Compound 10]
2,30%,NCCCC[C@H](N)c1nnc([C@H](CC(N)=O)NC(=O)N[C@@H](CO)C(=O)O)o1 [Compound 11]
3,68%,CCC(C)[C@H](N)c1nnc([C@@H](NC(=O)N[C@@H](CCC(=O)O)C(=O)O)C(C)CC)o1 (stereo partly drawn) [Compound 12]
4,29%,NCCCC[C@H](NC(=O)N[C@@H](CC(N)=O)c1nnc([C@@H](N)CO)o1)C(=O)O [Compound 13]
5,23%,NC(=O)C[C@H](NC(=O)N[C@@H](Cc1ccccc1)C(=O)O)c1nnc([C@@H](N)CO)o1 [Compound 15]
6,37%,CC(O)[C@H](NC(=O)N[C@@H](CC(N)=O)c1nnc([C@@H](N)CC(=O)O)o1)C(=O)O (stereo partly drawn) [Compound 16]
7,41%,CC(O)[C@H](NC(=O)N[C@@H](CCC(=O)O)c1nnc([C@@H](N)CCCCN)o1)C(=O)O (stereo partly drawn) [Compound 18]
8,74%,NC(=O)CC[C@H](NC(=O)N[C@@H](CO)c1nnc([C@@H](N)Cc2c[nH]c3ccccc23)o1)C(=O)O [Compound 20]
9,47%,CSC[C@H](N)c1nnc([C@H](CC(N)=O)NC(=O)N[C@H](C(=O)O)C(C)O)o1 (stereo partly drawn) [Compound 24]
10,66%,N[C@@H](CO)c1nnc([C@H](Cc2c[nH]c3ccccc23)NC(=O)N[C@@H](CC(=O)O)C(=O)O)o1 [Compound 28]
